According to patent publication US20080221163A1, “Selective Estrogen Receptor Modulators” (priority 2005, published 2008):
pIC50: −log10 of the molar value. Counter-ions that a name gives are not always drawn. Like-named read-outs stand apart in the source and are kept apart here. Blank lines part the entries; values can stand above or below the compound they belong to.

What was measured:
[1] = tested on: Ishikawa human endometrial tumor cells; experiment: Ishikawa Cell Proliferation Assay (alkaline phosphatase readout; agonist and antagonist modes); assay type: cell-based; conditions: for stimulation compared with tamoxifen: compound alone
Method: Ishikawa Cell Proliferation Assay: This assay measures cell proliferation (using an alkaline phosphatase readout) in both an agonist mode in the presence of a compound of the present invention alone, and in an antagonist mode in which the ability of a compound of the present invention to block estradiol stimulation of growth is measured.
Ishikawa human endometrial tumor cells are maintained in MEM (minimum essential medium, with Earle's salts and L-Glutamine, Gibco BRL, Gaithersburg, Md.), supplemented with 10% fetal bovine serum (FBS) (V/V), (Gibco BRL). One day prior to assay, growth media is changed to assay medium, DMEM/F-12 (3:1) (Dulbecco's Modified Eagle Medium: Nutrient Mixture F-12, 3:1 Mixture, phenol red-free, Gibco BRL) supplemented with 5% dextran coated charcoal stripped fetal bovine serum (DCC-FBS) (Hyclone, Logen, Utah), L-Glutamine (2 mM), MEM sodium pyruvate (1 mM), HEPES (N-[2-hydroxyethyl]piperazine-N′-[2-ethanesulfonic acid] 2 mM) all from Gibco BRL). After an overnight incubation, Ishikawa cells are rinsed with Dulbecco's Phosphate Buffered Saline (1×) (D-PBS) without Ca^+2 and Mg^+2 (Gibco BRL), and trypsinized by a 3 minute incubation with 0.25% Trypsin/EDTA, phenol red-free (Gibco BRL). Cells are resuspended in assay medium and adjusted to 250,000 cells/mL. Approximately 25,000 cells in a 100 μl media are added to flat-bottom 96 wells microculture plates (Costar 3596) and incubated at 37° C. in a 5% CO2 humidified incubator for 24 hours. The next day, serial dilutions of compounds are prepared in assay medium (at 6 times the final concentration in the assay). The assay is run in dual mode, agonist and antagonist modes.
For the agonist mode, plates receive 25 μl/well of assay medium followed by 25 μl/well of a diluted compound of the present invention (at 6× the final concentrations). For the antagonist mode, plates receive 25 μl/well of 6 nM E2 (β-Estradiol, Sigma, St. Louis, Mo.) followed by 25 μl/well of a diluted compound of the present invention (at 6× the final concentrations). After an additional 48-hour incubation at 37° C. in a 5% CO2 humidified incubator, media is aspirated from wells and 100 μl fresh assay medium is added to each microculture. Serial dilutions of compounds are prepared and added to the cells as described above. After an additional 72 hour incubation at 37° C. in a 5% CO2 humidified incubator, the assay is quenched by removing media and rinsing plates twice in Dulbecco's Phosphate Buffered Saline (1×) (D-PBS) (Gibco BRL). The plates are dried for 5 minutes and frozen at −70° C. for at least 1 hour. The plates are then removed from the freezer and allowed to thaw at room temperature. To each well, 100 μl of 1-Step™ PNPP (Pierce Chemical Company, Rockford, Ill.) is added. After a 20-minute incubation, plates are read on a spectophotometer at 405 nm.
The data is fitted to a linear interpolation to derive EC50 (for agonist mode) or IC50 (for antagonist mode) values. For the antagonist mode, a % efficacy for each compound is calculated versus E2 (1 nM) alone. For the agonist mode, a % efficacy for each compound is calculated versus the response to tamoxifen.

[2] = tested on: estrogen-induced response; experiment: 3-Day Rat Uterus Antagonist Assay; assay type: in vivo; conditions: immature female rats, oral, 3 days, with E2 0.1 mg/kg; for inhibition of the estrogen-induced response (uterine weight/body weight ratio): administered at 0.01, 0.1 and 1.0 mg/kg
Source text: 3-Day Rat Uterus Antagonist Assay: This model for uterine antagonism utilizes immature (3 week old) female rats that are highly sensitive to estrogenic stimulation of the uterus given that their circulating estrogen levels are prepubertal. The uteri from immature rats are fully responsive to exogenous estrogen, yet are quiescent in the absence of exogenous estrogen. Administration of exogenous estrogen to immature rats produces a reliable elevation of uterine weight, which can be used to study uterine antagonist effects. The rats are treated with both estradiol and 4 different concentrations of a compound of the present invention for 3 days and then uterine wet weights are measured.
Nineteen to twenty-one day old (or 45-50 g) female rats are orally treated with E2 (0.1 mg/kg, a maximal stimulatory estrogenic stimulus for reliably increasing uterine weight) and 10, 1.0, 0.1 and 0.01 mg/kg test compound for 3 days, 6 rats per group. Test compounds are dissolved in 20% β-hydroxycyclodextrin and administered by oral gavage in a volume of 0.2 mL daily (15 min. prior to the ethynyl estradiol gavage). A vehicle control, E2 alone and E2+raloxifene are also done as controls. The animals are fasted overnight following the final dose. On the following morning, the animals are weighed, then euthanized (by carbon dioxide asphyxiation) and the uteri rapidly collected (via a mid-line ventral incision) and weighed.
Uterine weight/body weight ratios (UWR) are calculated for each animal. The percent inhibition of the estrogen-induced response is then calculated by the following formula: percent inhibition=100×(UWRestrogen−UWRtest compound/UWRestrogen−UWRcontrol). ED50 values are derived from a semi-log regression analysis of the linear aspect of the dose response curve. Both the UWR data and the percent inhibition data are statistically analyzed by one way analysis of variance (ANOVA) with post-hoc testing by Fisher's PLSD when indicated by a p≦0.05. Statistical analyses are performed using the Statview® 4.0 software package.

[3] = 10-Day Rat Hormone (Ovarian Stimulation) Screen; assay type: in vivo; conditions: mature F344 female rats, oral gavage 10 days, serum about 2 hours after 10th dose, RIA
Method: 10-Day Rat Hormone (Ovarian Stimulation) Screen: An initial, first screen for ovarian toxicity is conducted using a 10-day rat hormone study to measure estradiol and luteinizing hormone levels after compound administration. This screen is conducted by administering compound by oral gavage for 10 days to mature (9-10 week old) F344 female rats. Trunk blood is collected by rapid decapitation for evaluation of LH and estradiol levels approximately 2 hours after the 10th dose. Serum, obtained by centrifugation, is removed and stored frozen below −60° C. until assayed. Serum levels of LH and estradiol are measured using radioimmunoassay (RIA) methods.
Rat LH primary antibody and reference preparations (rat LH:RP-3) are obtained from Dr. A. F. Parlow, Director, Pituitary Hormones and Antisera Center, Harbor-UCLA Medical Center, Torrance, Calif. The LH assay upper limits of detection are 30 ng/mL and the lower limits of detection are 0.1 ng/mL for the 100 μl samples.
E2 Clinical Assays. DiaSorin s.r.l., Saluggia (Vercelli), Italy. The upper limit of detection is 1000 pg/mL and the lower limit of detection is 5 pg/mL.

circulating LH levels [3]: did not significantly elevate
circulating estradiol levels [3]: did not significantly elevate
Structure (SMILES): CS(=O)(=O)c1ccc2c(c1)OC(c1ccc(OCCN3CCCCC3)cc1)c1c-2ccc2cc(O)ccc12 (racemic) [Example 3, 8-Methanesulfonyl-5-[4-(2-piperidin-1-yl-ethoxy)-phenyl]-5H-6-oxa-chrysen-2-ol, mono-Hydrochloride salt]
stimulation compared with tamoxifen ([1]; agonist mode): less stimulatory than tamoxifen
% antagonism [2]: 81%
ED50 [2]: 0.17 mpk
inhibition of the estrogen-induced response (uterine weight/body weight ratio) [2]: inhibit the estrogen-induced response

pIC50 ([1]; Homo sapiens, Ishikawa, antagonist mode, block of estradiol stimulation): 7.35
Structure (SMILES): CSc1ccc2c(c1)OC(c1ccc(OCCN3CCCCC3)cc1)c1c-2ccc2cc(O)ccc12.Cl (centres unmarked) [Example 1, 8-Methylsulfanyl-5-[4-(2-piperidin-1-yl-ethoxy)-phenyl-5H-6-oxa-chrysen-2-ol hydrochloride]
Emax ([1]; Homo sapiens, Ishikawa, agonist mode, % efficacy versus the response to tamoxifen, read-out: relative % efficacy): 26%
Emax ([1]; Homo sapiens, Ishikawa, antagonist mode, versus E2 (1 nM) alone, read-out: % efficacy): 92%

Structure (SMILES): CSc1ccc2c(c1)OC(c1ccc(OCCN3CCCCC3)cc1)c1c-2ccc2cc(O)ccc12.Cl (centres unmarked) [Example 1]
stimulation compared with tamoxifen ([1]; agonist mode): less stimulatory than tamoxifen
% antagonism [2]: 69%
ED50 [2]: 0.22 mpk
inhibition of the estrogen-induced response (uterine weight/body weight ratio) [2]: inhibit the estrogen-induced response

Structure (SMILES): CNS(=O)(=O)c1ccc2c(c1)OC(c1ccc(OCCN3CCCCC3)cc1)c1c-2ccc2cc(O)ccc12.Cl (centres unmarked) [Example 5, 8-N-methyl sulfonamide-5-[4-(2-piperidin-1-yl-ethoxy)-phenyl]-5H-6-oxacbrysen-2-ol]
stimulation compared with tamoxifen ([1]; agonist mode): less stimulatory than tamoxifen

Structure (SMILES): CCS(=O)(=O)c1ccc2c(c1)OC(c1ccc(OCCN3CCCCC3)cc1)c1c-2ccc2cc(O)ccc12.Cl (centres unmarked) [Example 7, 8-Ethanesulfonyl-5-[4-(2-piperidin-1-yl-ethoxy)-phenyl]-5H-6-oxa-chrysen-2-ol hydrochloride salt]
stimulation compared with tamoxifen ([1]; agonist mode): less stimulatory than tamoxifen

Structure (SMILES): CNS(=O)(=O)c1ccc2c(c1)-c1ccc3cc(O)ccc3c1C(c1ccc(OCCN3CCCCC3)cc1)O2.Cl (centres unmarked) [Example 9, 2-Hydroxy-5-[4-(2-piperidin-1-yl-ethoxy)-phenyl]-5H-6-oxa-chrysen-9-sulfonic acid methylamide hydrochloride salt]
stimulation compared with tamoxifen ([1]; agonist mode): less stimulatory than tamoxifen

Structure (SMILES): CS(=O)(=O)c1ccc2c(c1)-c1ccc3cc(O)ccc3c1C(c1ccc(OCCN3CCCCC3)cc1)O2.Cl (centres unmarked) [Example 10, 9-Methanesulfonyl-5-[4-(2-piperidin-1-yl-ethoxy)-phenyl]-5H-6-oxa-chrysen-2-ol hydrochloride salt]
stimulation compared with tamoxifen ([1]; agonist mode): less stimulatory than tamoxifen
